Converted amounts (≈) assume the structure as drawn. Structures can show the parent of a compound that is named as a salt.
Legend:
HEK293 = test: cells; assay type: functional, Homo sapiens, ATCC CRL1573
Pseudomonas aeruginosa [1] = test: Antibacterial activity against Pseudomonas aeruginosa PAO397 [PAO1 d(mexAB-oprM) d(mexCD-oprJ) d(mexEF-oprN) d(mexJKL) d(mexXY) d(opmH)] (CO-ADD:GN_211); MIC in CAMBH media using NBS plates, by OD(600); assay type: functional; conditions: ASSAY_TEST Inhibition of Bacterial Growth, detection method Absorption (OD600), MEDIA CAMHB, plate type 384well, CORNING #3640, time 18 hr
Staphylococcus aureus [2] = conditions: ASSAY_TEST Inhibition of Bacterial Growth; detection method Absorption (OD600); MEDIA CAMHB; plate type 384well; NBS; CORNING #3640; time 18 hr
Description: (§1) Antibacterial activity against Staphylococcus aureus MRSA ATCC 43300 (CO-ADD:GP_020); MIC in CAMBH media, using NBS plates, by OD(600)

Escherichia coli [3] = conditions: ASSAY_TEST Inhibition of Bacterial Growth; detection method Absorption (OD600); MEDIA CAMHB; plate type 384well; NBS; CORNING #3640; time 18 hr
Description: (§2) Antibacterial activity against Escherichia coli ATCC 25922 (CO-ADD:GN_001); MIC in CAMBH media using NBS plates, by OD(600)

Klebsiella pneumoniae [4] = conditions: ASSAY_TEST Inhibition of Bacterial Growth; detection method Absorption (OD600); MEDIA CAMHB; plate type 384well; NBS; CORNING #3640; time 18 hr
Description: (§3) Antibacterial activity against Klebsiella pneumoniae MDR ATCC 70063 (CO-ADD:GN_003); MIC in CAMBH media using NBS plates, by OD(600)

Pseudomonas aeruginosa [5] = conditions: ASSAY_TEST Inhibition of Bacterial Growth; detection method Absorption (OD600); MEDIA CAMHB; plate type 384well; NBS; CORNING #3640; time 18 hr
Description: (§4) Antibacterial activity against Pseudomonas aeruginosa ATCC 27853 (CO-ADD:GN_042); MIC in CAMBH media using NBS plates, by OD(600)

Acinetobacter baumannii [6] = conditions: ASSAY_TEST Inhibition of Bacterial Growth; detection method Absorption (OD600); MEDIA CAMHB; plate type 384well; NBS; CORNING #3640; time 18 hr
Description: (§5) Antibacterial activity against Acinetobacter baumannii ATCC 19606 (CO-ADD:GN_034); MIC in CAMBH media using NBS plates, by OD600

Candida albicans [7] = conditions: ASSAY_TEST Inhibition of Fungal Growth; detection method Absorption (OD530); plate type 384well; NBS; CORNING #3640
Description: (§6) Antifungal activity against Candida albicans ATCC 90028 (CO-ADD:FG_001); MIC in YNB media using NBS plates, by OD630

Staphylococcus aureus [8] = test: microbe, parasite or virus in culture; conditions: ATCC 43300, 18 h, ASSAY_TEST Inhibition of Bacterial Growth, detection method Absorption (OD600), MEDIA CAMHB, plate type 384well, NBS, CORNING #3640
Description: as §1

Escherichia coli [9] = test: microbe, parasite or virus in culture; conditions: ATCC 25922, 18 h, ASSAY_TEST Inhibition of Bacterial Growth, detection method Absorption (OD600), MEDIA CAMHB, plate type 384well, NBS, CORNING #3640
Description: as §2

Klebsiella pneumoniae [10] = test: microbe, parasite or virus in culture; conditions: ATCC 700603, 18 h, ASSAY_TEST Inhibition of Bacterial Growth, detection method Absorption (OD600), MEDIA CAMHB, plate type 384well, NBS, CORNING #3640
Description: as §3

Pseudomonas aeruginosa [11] = test: microbe, parasite or virus in culture; conditions: ATCC 27853, 18 h, ASSAY_TEST Inhibition of Bacterial Growth, detection method Absorption (OD600), MEDIA CAMHB, plate type 384well, NBS, CORNING #3640
Description: as §4

Acinetobacter baumannii [12] = test: microbe, parasite or virus in culture; conditions: ATCC 19606, 18 h, ASSAY_TEST Inhibition of Bacterial Growth, detection method Absorption (OD600), MEDIA CAMHB, plate type 384well, NBS, CORNING #3640
Description: as §5

Candida albicans [13] = test: microbe, parasite or virus in culture; conditions: ATCC 90028, ASSAY_TEST Inhibition of Fungal Growth, detection method Absorption (OD530), plate type 384well, NBS, CORNING #3640
Description: as §6

[14] = Homo sapiens, ATCC CRL1573, HEK293, ASSAY_TEST Inhibition of Cell Viability, detection method Resazurin, Fluorescence (ex560/em590), MEDIA DMEM with 10% FBS, plate type 384well, TC, CORNING #3712, time 18 hr, read-out: CC50
[15] = ASSAY_TEST Inhibition of Cell Viability, detection method Resazurin, Fluorescence (ex560/em590), MEDIA DMEM with 10% FBS, plate type 384well, TC, CORNING #3712, time 18 hr, read-out: CC50

Description for Cryptococcus neoformans: Antifungal activity against Cryptococcus neoformans H99 ATCC 208821 (CO-ADD:FG_002); MIC in YNB media using NBS plates, by Resazurin OD(600-570)

| Compound | CC50 (HEK293; [14]) [µM] | MIC (Pseudomonas aeruginosa [1]) [µM] | MIC (Staphylococcus aureus [2]) [µM] | MIC (Escherichia coli [3]) | MIC (Klebsiella pneumoniae [4]) [µM] | MIC (Pseudomonas aeruginosa [5]) [µM] | MIC (Acinetobacter baumannii [6]) [µM] | MIC (Candida albicans [7]) | MIC (Cryptococcus neoformans) [µM] | CC50 (HEK293; [15]) [µM] | CC50 (HEK293; Homo sapiens, ATCC CRL1573, HEK293, 18 h) [µM] | MIC (Staphylococcus aureus [8]) [µM] | MIC (Escherichia coli [9]) [µM] | MIC (Klebsiella pneumoniae [10]) [µM] | MIC (Pseudomonas aeruginosa [11]) [µM] | MIC (Acinetobacter baumannii [12]) [µM] | MIC (Candida albicans [13]) [µM] |
| --- | --- | --- | --- | --- | --- | --- | --- | --- | --- | --- | --- | --- | --- | --- | --- | --- | --- |
| OC(Cn1cncn1)(Cn1cncn1)c1ccc(F)cc1F [FLUCONAZOLE] | > 20 | > 20 | >20 | >20 µM | >20 | >20 | >20 | 2.5 µM (≈ 0.766 µg/mL) | > 20 |  |  |  |  |  |  |  |  |
| O=c1[nH]cnc2c1ncn2[C@H]1CC[C@@H](CO)O1 [DIDANOSINE] | > 20 | > 20 | >20 | >20 µM | >20 | >20 | >20 | >20 µM | > 20 |  |  |  |  |  |  |  |  |
| CC(=O)NC[C@H]1CN(c2ccc(N3CCSCC3)c(F)c2)C(=O)O1 [SUTEZOLID] |  | 20 (≈ 7.07 µg/mL) | 5 (≈ 1.77 µg/mL) | >20 µM | >20 | >20 | >20 | >20 µM | > 20 | > 20 |  |  |  |  |  |  |  |
| CCC(C)n1ncn(-c2ccc(N3CCN(c4ccc(OCC5COC(Cn6cncn6)(c6ccc(Cl)cc6Cl)O5)cc4)CC3)cc2)c1=O (stereo unspecified) [ITRACONAZOLE] | > 20 | > 20 | >20 | >20 µM | >20 | >20 | >20 | <=0.1562 uM | ≤ 0.156 |  |  |  |  |  |  |  |  |
| C[C@H]1COc2c(N3CCN(C)CC3)c(F)cc3c(=O)c(C(=O)O)cn1c23.C[C@H]1COc2c(N3CCN(C)CC3)c(F)cc3c(=O)c(C(=O)O)cn1c23.O [LEVOFLOXACIN] |  | ≤ 0.156 | 2.5 | <=0.1562 uM | 5 | 2.5 | 10 | >20 µM | > 20 | > 20 |  |  |  |  |  |  |  |
| CC(=O)N1CCN(c2ccc(OCC3COC(Cn4ccnc4)(c4ccc(Cl)cc4Cl)O3)cc2)CC1 (stereo unspecified) [KETOCONAZOLE] |  | 20 (≈ 10.6 µg/mL) | >20 | >20 µM | >20 | >20 | >20 | 0.3125 µM (≈ 0.166 µg/mL) | 5 (≈ 2.66 µg/mL) |  | > 20 |  |  |  |  |  |  |
| Nc1cc(N)c2nc(-c3ccccc3)c(Nc3ccc(F)cc3)nc2c1 | 1.91 | > 20 |  |  |  |  |  |  | > 20 |  |  | > 20 | > 20 | > 20 | > 20 | > 20 | > 20 |
| O=S(=O)(Nc1ccc(-n2cccc2)cc1)c1ccc(Cl)c(Cl)c1 | > 20 | > 20 |  |  |  |  |  |  | > 20 |  |  | > 20 | > 20 | > 20 | > 20 | > 20 | > 20 |
| OB1OCc2c1ccc(Cl)c2F | > 20 | > 20 |  |  |  |  |  |  | 20 (≈ 3.73 µg/mL) |  |  | > 20 | > 20 | > 20 | > 20 | > 20 | 10 (≈ 1.86 µg/mL) |
| O=S(=O)(Nc1cccc2cccnc12)c1ccccc1 | 2.25 | > 20 |  |  |  |  |  |  | > 20 |  |  | > 20 | > 20 | > 20 | > 20 | > 20 | > 20 |
| Nc1cnn(C2OC(CO)C(O)C2O)c(=O)n1 (stereo unspecified) | > 20 | > 20 |  |  |  |  |  |  | > 20 |  |  | > 20 | > 20 | > 20 | > 20 | > 20 | > 20 |
| CCNC(=O)Nc1cn2c(-c3ncc(CC)cn3)cc(-c3cccnc3)cc2n1 | > 20 | > 20 |  |  |  |  |  |  | > 20 |  |  | > 20 | > 20 | > 20 | > 20 | > 20 | > 20 |
| O=C(O)CSc1cc(NS(=O)(=O)c2cccc3cccnc23)c2ccccc2c1O | > 20 | > 20 |  |  |  |  |  |  | > 20 |  |  | > 20 | > 20 | > 20 | > 20 | > 20 | > 20 |
| COc1c(F)c(F)cc2c(=O)c(C(=O)O)cn(C3CC3)c12 | > 20 | 5 (≈ 1.48 µg/mL) |  |  |  |  |  |  | > 20 |  |  | 20 (≈ 5.9 µg/mL) | 2.5 (≈ 0.738 µg/mL) | > 20 | 10 (≈ 2.95 µg/mL) | > 20 | > 20 |
| COc1ccc(COc2cc3oc(=O)c4cc(C(C)O)ccc4c3cc2OC)cc1 (stereo unspecified) [PALOMID-529] | > 20 | > 20 |  |  |  |  |  |  | > 20 |  |  | > 20 | > 20 | > 20 | > 20 | > 20 | > 20 |
| O=C(O)c1ccc(-n2nc(-c3ccccc3O)nc2-c2ccccc2O)cc1 [DEFERASIROX] | > 20 | > 20 |  |  |  |  |  |  | > 20 |  |  | > 20 | > 20 | > 20 | > 20 | > 20 | > 20 |
| O=C(Cn1cnc2ccccc2c1=O)Nc1ccccc1 | > 20 | > 20 |  |  |  |  |  |  | > 20 |  |  | > 20 | > 20 | > 20 | > 20 | > 20 | > 20 |
| Nc1nc2c(ncn2/C=C2/CC2(CO)CO)c(=O)[nH]1 [FILOCICLOVIR] | > 20 | > 20 |  |  |  |  |  |  | > 20 |  |  | > 20 | > 20 | > 20 | > 20 | > 20 | > 20 |
| O=C1C=C(c2ccccc2)S(=O)(=O)c2ccccc21 | 4.03 | > 20 |  |  |  |  |  |  | 5 (≈ 1.35 µg/mL) |  |  | > 20 | > 20 | > 20 | > 20 | > 20 | 5 (≈ 1.35 µg/mL) |
| Nc1c(C(=O)NCc2ccco2)c2nc3ccccc3nc2n1CCN1CCCCC1 | > 20 | > 20 |  |  |  |  |  |  | > 20 |  |  | > 20 | > 20 | > 20 | > 20 | > 20 | > 20 |
| COc1ccc2c(c1)cc(CNC(=O)c1cc3ccccc3o1)n2CC(=O)O | > 20 | > 20 |  |  |  |  |  |  | > 20 |  |  | > 20 | > 20 | > 20 | > 20 | > 20 | > 20 |
| CC[C@@H]1C(=O)OC[C@@H]1Cc1cncn1C [PILOCARPINE HYDROCHLORIDE] | > 20 | > 20 |  |  |  |  |  |  | > 20 |  |  | > 20 | > 20 | > 20 | > 20 | > 20 | > 20 |
| O=C(O)C[C@H]1CC[C@H](c2ccc(-c3ccc(Nc4ccc(C(F)(F)F)nc4)cn3)cc2)CC1 | > 20 | > 20 |  |  |  |  |  |  | > 20 |  |  | > 20 | > 20 | > 20 | > 20 | > 20 | > 20 |
| Oc1cc(-c2cccc3ccccc23)[nH]n1 | > 20 | > 20 |  |  |  |  |  |  | > 20 |  |  | > 20 | > 20 | > 20 | > 20 | > 20 | > 20 |
